Data reported in paper PMC7946228, “Discovery of novel candidates for anti-liposarcoma therapies by medium-scale high-throughput drug screening” (PLoS ONE, 2021).

Tests used:
Type in all cases: cell-based, human
[1] = test system: NRH-LS1 liposarcoma cell line; assay: CellTiter-Glo viability, GR50, 72h; conditions: Homo sapiens; NRH-LS1, 72h; read-out: Half maximum effective concentration corrected for cell growth (GR50)
Experimental: (§1) Cell viability was measured using the CellTiter-Glo Luminescent Cell Viability Assay (Promega, Wisconsin, United States). For each experiment the same cell numbers were seeded as for the proliferation experiments. Seven drug concentrations were used, starting from 100μM with 10-fold dilutions and also a vehicle control appropriate for each drug (DMSO or ethanol). After 72h of drug or vehicle control treatment levels of ATP were measured with CellTiter-Glo. The data from six to nine biological replicates, each with three technical replicates were collected. A nonlinear regression model with different four-parameter log-logistic function was used for modelling of the drug dose-response using ‘GRmetrics’ R package version 1.8.1 [26]. The calculated GR50 metric is equivalent to the IC50 metric but takes into account the growth rate of cells. Therefore, it estimates better the effect of the compound on cell viability and allows for comparison between different cell lines with different growth rates.

[2] = test system: T1000 liposarcoma cell line; assay: CellTiter-Glo viability, GR50, 72h; conditions: Homo sapiens; T1000, 72h; read-out: Half maximum effective concentration corrected for cell growth (GR50)
Experimental: as §1

[3] = test system: T449 liposarcoma cell line; assay: CellTiter-Glo viability, GR50, 72h; conditions: Homo sapiens; T449, 72h; read-out: Half maximum effective concentration corrected for cell growth (GR50)
Experimental: as §1

[4] = test system: LiSa-2 liposarcoma cell line; assay: CellTiter-Glo viability, GR50, 72h; conditions: Homo sapiens; LiSa-2, 72h; read-out: Half maximum effective concentration corrected for cell growth (GR50)
Experimental: as §1

[5] = test system: GOT3 liposarcoma cell line; assay: CellTiter-Glo viability, GR50, 72h; conditions: Homo sapiens; GOT3, 72h; read-out: Half maximum effective concentration corrected for cell growth (GR50)
Experimental: as §1

[6] = test system: LPS141 liposarcoma cell line; assay: CellTiter-Glo viability, GR50, 72h; conditions: Homo sapiens, LPS141; LPS 141, 72h; read-out: Half maximum effective concentration corrected for cell growth (GR50)
Experimental: as §1

[7] = test system: LS2 liposarcoma cell line; assay: CellTiter-Glo viability, GR50, 72h; conditions: Homo sapiens; LS2, 72h; read-out: Half maximum effective concentration corrected for cell growth (GR50)
Experimental: as §1

[8] = test system: LPS853 liposarcoma cell line; assay: CellTiter-Glo viability, GR50, 72h; conditions: Homo sapiens; LPS 853, 72h; read-out: Half maximum effective concentration corrected for cell growth (GR50)
Experimental: as §1

[9] = test system: SA-4 liposarcoma cell line; assay: CellTiter-Glo viability, GR50, 72h; conditions: Homo sapiens; SA-4, 72h; read-out: Half maximum effective concentration corrected for cell growth (GR50)
Experimental: as §1

[10] = test system: SW872 liposarcoma cell line; assay: CellTiter-Glo viability, GR50, 72h; conditions: Homo sapiens, SW872; SW 872, 72h; read-out: Half maximum effective concentration corrected for cell growth (GR50)
Experimental: as §1

[11] = test system: LPS510 liposarcoma cell line; assay: CellTiter-Glo viability, GR50, 72h; conditions: Homo sapiens; LPS 510, 72h; read-out: Half maximum effective concentration corrected for cell growth (GR50)
Experimental: as §1

[12] = test system: FU-DDLS-1 liposarcoma cell line; assay: CellTiter-Glo viability, GR50, 72h; conditions: Homo sapiens; FU-DDL S-1, 72h; read-out: Half maximum effective concentration corrected for cell growth (GR50)
Experimental: as §1

[13] = test system: T778 liposarcoma cell line; assay: CellTiter-Glo viability, GR50, 72h; conditions: Homo sapiens; T778, 72h; read-out: Half maximum effective concentration corrected for cell growth (GR50)
Experimental: as §1

[14] = test system: cancer cells isolated from primary liposarcoma tumors; assay: Ex vivo cultures of patient-derived tumor cells, ATP viability 72h; conditions: 1 nM to 10 μM, patients 1-3
Experimental: 349 compounds from anti-cancer Selleck Chemical library were pre-aliquoted at five concentrations, increasing in 10-fold steps from 1 nM to 10 μM, in 384-well plates using an Echo Liquid Handler. Each plate also contained positive (benzethonium chloride, BzCl) and negative (DMSO only) controls. Additional drugs were added manually to the same plates at the same concentration range. Cells were seeded directly into the plates containing the drugs. After 72h viability was assessed through levels of ATP, with Cell Titer Glow assay (Promega, Wisconsin, United States) and luminescence quantified using a […]. Data from drug screens were analyzed with R version 3.4.0 (R_Core_Team, 2017) normalized to median positive (BzCl) and median negative (DMSO) controls using formula: (drug-BzCl)/(DMSO–BzCl), with total viability calculated as the area under the curve over all five drug concentrations, adjusted using qualitatively constrained quantile smoothing splines, R package ‘cobs’ version 1.3–3 [22]. The raw values of positive (BzCl) and median negative (DMSO) controls on each assay plate were aggregated and used to calculate z’-factors, as a measure of assay performance and data quality, with a z’-factor > 0.5 representing acceptable data. For two cases where the z’-factor was below 0.5, strictly standardized mean difference (SSMD) was additionally calculated, giving the population value (β) of SSMD -4 and -5, respectively, indicating good quality. Data visualization was done in R using ‘ComplexHeatmaps’ package version 1.20.0 [24]. The same assay was also used when assessing viability of non-tumor cells and tumor explants.
Explants of tumors from patients with liposarcoma were made using Tumor Dissociation Kit and gentleMACS Dissociator (both Miltenyi Biotec, Germany) according to the manufacturer’s instructions. […]
Next, we tested the selected candidate drugs on cancer cells isolated from primary liposarcoma tumors that were available during the study (Fig 5, bottom panel). […] Cell viability was assessed by measuring ATP after 72h. […]

Row | Compound | IC50 [1] | IC50 [2] | IC50 [3] | IC50 [4] | IC50 [5] | IC50 [6] | IC50 [7] | IC50 [8] | IC50 [9] | IC50 [10] | IC50 [11] | IC50 [12] | IC50 [13] | efficacy against primary tumor cells from liposarcoma patients [14]
1 | O=C(/C=C/c1cccnc1)NCCCCC1CCN(C(=O)c2ccccc2)CC1 [APO866] | 0.001 µM | 0.006 µM | 0.001 µM | 0.008 µM | 0.005 µM | 0.006 µM | 0.008 µM | 0.001 µM | 0.01 µM | 0.004 µM | 0.003 µM | 0.001 µM | 0.003 µM | most varied
2 | Cn1cc(CNCC2CCN(c3ncc(C(=O)NO)cn3)CC2)c2ccccc21 [JNJ-26481585] | 0.103 µM | 0.01 µM | 0.025 µM | 0.021 µM | 0.022 µM | 0.102 µM | 0.094 µM | 0.018 µM | 0.044 µM | 0.07 µM | 0.033 µM | 0.012 µM | 0.025 µM | 
3 | COCCn1c2c([n+](Cc3cnccn3)c1C)C(=O)c1ccccc1C2=O [YM155] | 0.069 µM | 0.017 µM | 0.712 µM | 0.234 µM | 0.187 µM | 0.011 µM | 0.358 µM | 0.004 µM | 0.03 µM | 0.002 µM | 0.093 µM | 0.049 µM | 0.096 µM | good response
4 | CC(C)[C@]12O[C@H]1[C@@H]1O[C@]13[C@]1(O[C@H]1C[C@H]1C4=C(CC[C@@]13C)C(=O)OC4)[C@@H]2O [Triptolide] | 0.007 µM | 0.008 µM | 0.008 µM | 0.009 µM | 0.007 µM | 0.012 µM | 0.006 µM | 0.005 µM | 0.013 µM | 0.002 µM | 0.005 µM | 0.008 µM | 0.008 µM | most efficient for all the samples
